According to patent US20210045385A1, “PYRIDAZINONE-SUBSTITUTED KETOXIMES AS HERBICIDES” (FMC Corporation, priority 2018, published 2021):

How the values were obtained:
Type in all cases: in vivo
[1] = test system: Italian ryegrass (Lolium multiflorum); experiment: Test A preemergence, visual plant response rating; settings: for Ryegrass, Italian plant response rating: 125 g ai/ha, preemergence, 0 to 100 scale, 0 no effect, 100 complete control; for Ryegrass, Italian plant response rating (0 to 100 scale): 500 g ai/ha Preemergence, approx. 10 days
How it was run: (§1)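 Preemergence: seeds in loam/sand blend given directed soil spray of compound in non-phytotoxic solvent with surfactant. Postemergence: plants 2–10 cm, one- to two-leaf stage, sprayed with same formulation. Visual injury rated vs untreated controls after ~10 days in greenhouse, 0 (no effect) to 100 (complete control).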

[2] = test system: barnyardgrass (Echinochloa crus-galli); experiment: Test A preemergence, visual plant response rating; settings: for Barnyardgrass plant response rating: 125 g ai/ha, preemergence, 0 to 100 scale, 0 no effect, 100 complete control; for Barnyardgrass plant response rating (0 to 100 scale): 500 g ai/ha Preemergence, approx. 10 days
How it was run: as §1

[3] = test system: foxtail, giant (giant foxtail, Setaria faberii); experiment: Test A preemergence, visual plant response rating; settings: for Foxtail, Giant plant response rating: 125 g ai/ha, preemergence, 0 to 100 scale, 0 no effect, 100 complete control; for Foxtail, Giant plant response rating (0 to 100 scale): 500 g ai/ha Preemergence, approx. 10 days
How it was run: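 Greenhouse pot test in loam–sand soil mix: compound in a surfactant-containing non-phytotoxic solvent applied preemergence (directed soil spray) or postemergence (one- to two-leaf plants, 2–10 cm). Injury scored visually after ~10 days, 0–100.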

[4] = test system: kochia (Kochia scoparia); experiment: Test A preemergence, visual plant response rating; settings: for Kochia plant response rating: 125 g ai/ha, preemergence, 0 to 100 scale, 0 no effect, 100 complete control; for Kochia plant response rating (0 to 100 scale): 500 g ai/ha Preemergence, approx. 10 days
How it was run: as §1

[5] = test system: pigweed (Amaranthus retroflexus); experiment: Test A preemergence, visual plant response rating; settings: for Pigweed plant response rating: 125 g ai/ha, preemergence, 0 to 100 scale, 0 no effect, 100 complete control; for Pigweed plant response rating (0 to 100 scale): 500 g ai/ha Preemergence, approx. 10 days
How it was run: as §1

[6] = test system: ragweed (common ragweed, Ambrosia elatior); experiment: Test A preemergence, visual plant response rating; settings: for Ragweed plant response rating: 125 g ai/ha, preemergence, 0 to 100 scale, 0 no effect, 100 complete control; for Ragweed plant response rating (0 to 100 scale): 500 g ai/ha Preemergence, approx. 10 days
How it was run: as §1

[7] = test system: Italian ryegrass (Lolium multiflorum); experiment: Test A postemergence, visual plant response rating; settings: for Ryegrass, Italian plant response rating (0 to 100 scale): 500 g ai/ha, postemergence, 0 is no effect, 100 is complete control; for Ryegrass, Italian plant response rating: Postemergence, 125 g ai/ha, 0 to 100 scale (0 no effect, 100 complete control)
How it was run: as §1

[8] = test system: barnyardgrass (Echinochloa crus-galli); experiment: Test A postemergence, visual plant response rating; settings: for Barnyardgrass plant response rating (0 to 100 scale): 500 g ai/ha, postemergence, 0 is no effect, 100 is complete control; for Barnyardgrass plant response rating: Postemergence, 125 g ai/ha, 0 to 100 scale (0 no effect, 100 complete control)
How it was run: as §1

[9] = test system: blackgrass (Alopecurus myosuroides); experiment: Test A postemergence, visual plant response rating; settings: for Blackgrass plant response rating (0 to 100 scale): 500 g ai/ha, postemergence, 0 is no effect, 100 is complete control; for Blackgrass plant response rating: Postemergence, 125 g ai/ha, 0 to 100 scale (0 no effect, 100 complete control)
How it was run: as §1

[10] = test system: corn (Zea mays); experiment: Test A postemergence, visual plant response rating; settings: for Corn plant response rating (0 to 100 scale): 500 g ai/ha, postemergence, 0 is no effect, 100 is complete control; for Corn plant response rating: Postemergence, 125 g ai/ha, 0 to 100 scale (0 no effect, 100 complete control)
How it was run: as §1

[11] = test system: foxtail, giant (giant foxtail, Setaria faberii); experiment: Test A postemergence, visual plant response rating; settings: for Foxtail, Giant plant response rating (0 to 100 scale): 500 g ai/ha, postemergence, 0 is no effect, 100 is complete control; for Foxtail, Giant plant response rating: Postemergence, 125 g ai/ha, 0 to 100 scale (0 no effect, 100 complete control)
How it was run: as §1

[12] = test system: galium (catchweed bedstraw, Galium aparine); experiment: Test A postemergence, visual plant response rating; settings: for Galium plant response rating (0 to 100 scale): 500 g ai/ha, postemergence, 0 is no effect, 100 is complete control; for Galium plant response rating: Postemergence, 125 g ai/ha, 0 to 100 scale (0 no effect, 100 complete control)
How it was run: as §1

[13] = test system: kochia (Kochia scoparia); experiment: Test A postemergence, visual plant response rating; settings: for Kochia plant response rating (0 to 100 scale): 500 g ai/ha, postemergence, 0 is no effect, 100 is complete control; for Kochia plant response rating: Postemergence, 125 g ai/ha, 0 to 100 scale (0 no effect, 100 complete control)
How it was run: as §1

[14] = test system: pigweed (Amaranthus retroflexus); experiment: Test A postemergence, visual plant response rating; settings: for Pigweed plant response rating (0 to 100 scale): 500 g ai/ha, postemergence, 0 is no effect, 100 is complete control; for Pigweed plant response rating: Postemergence, 125 g ai/ha, 0 to 100 scale (0 no effect, 100 complete control)
How it was run: as §1

[15] = test system: ragweed (common ragweed, Ambrosia elatior); experiment: Test A postemergence, visual plant response rating; settings: for Ragweed plant response rating (0 to 100 scale): 500 g ai/ha, postemergence, 0 is no effect, 100 is complete control; for Ragweed plant response rating: Postemergence, 125 g ai/ha, 0 to 100 scale (0 no effect, 100 complete control)
How it was run: as §1

[16] = test system: wheat (Triticum aestivum); experiment: Test A postemergence, visual plant response rating; settings: for Wheat plant response rating (0 to 100 scale): 500 g ai/ha, postemergence, 0 is no effect, 100 is complete control; for Wheat plant response rating: Postemergence, 125 g ai/ha, 0 to 100 scale (0 no effect, 100 complete control)
How it was run: as §1

[17] = test system: barnyardgrass (Echinochloa crus-galli); experiment: Test B flooded paddy test, visual plant response rating; settings: 250 g ai/ha, Flood, applied to paddy water, 2-leaf stage, evaluated after 13 to 15 days
How it was run: (§2)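 Seedlings at 2 leaves; compound into paddy water (3 cm flood, maintained); 13–15 d greenhouse; visual score relative to controls.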

[18] = test system: ducksalad (Heteranhera limosa); experiment: as above; settings: 250 g ai/ha, Flood, applied to paddy water, 2-leaf stage, evaluated after 13 to 15 days
How it was run: as §2

[19] = test system: rice (Oryza sativa); experiment: as above; settings: 250 g ai/ha, Flood, applied to paddy water, 2-leaf stage, evaluated after 13 to 15 days
How it was run: as §2

[20] = test system: sedge, umbrella (small-flower umbrella sedge, Cyperus difformis); experiment: as above; settings: 250 g ai/ha, Flood, applied to paddy water, 2-leaf stage, evaluated after 13 to 15 days
How it was run: as §2

CO/N=C(\c1ccsc1C)c1c(O)c(C)nn(C)c1=O [Compound 43]
0: Ryegrass, Italian plant response rating [1] | Ryegrass, Italian plant response rating (0 to 100 scale) [1] | Barnyardgrass plant response rating [2] | Barnyardgrass plant response rating (0 to 100 scale) [2] | Foxtail, Giant plant response rating [3] | Foxtail, Giant plant response rating (0 to 100 scale) [3] | Kochia plant response rating [4] | Kochia plant response rating (0 to 100 scale) [4] | Pigweed plant response rating [5] | Ragweed plant response rating [6] | Ryegrass, Italian plant response rating [7] | Barnyardgrass plant response rating (0 to 100 scale) [8] | Barnyardgrass plant response rating [8] | Blackgrass plant response rating [9] | Corn plant response rating (0 to 100 scale) [10] | Corn plant response rating [10] | Foxtail, Giant plant response rating (0 to 100 scale) [11] | Foxtail, Giant plant response rating [11] | Kochia plant response rating [13] | Wheat plant response rating (0 to 100 scale) [16] | Wheat plant response rating [16] | Plant response rating, Barnyardgrass (0 to 100 scale, 0 is no effect, 100 is complete control) [17] | Plant response rating, Ducksalad (0 to 100 scale, 0 is no effect, 100 is complete control) [18] | Plant response rating, Rice (0 to 100 scale, 0 is no effect, 100 is complete control) [19] | Plant response rating, Sedge, Umbrella (0 to 100 scale, 0 is no effect, 100 is complete control) [20]
20: Ragweed plant response rating (0 to 100 scale) [6] | Blackgrass plant response rating (0 to 100 scale) [9] | Galium plant response rating [12] | Kochia plant response rating (0 to 100 scale) [13] | Pigweed plant response rating [14] | Ragweed plant response rating [15]
60: Pigweed plant response rating (0 to 100 scale) [14]
30: Pigweed plant response rating (0 to 100 scale) [5] | Ryegrass, Italian plant response rating (0 to 100 scale) [7] | Ragweed plant response rating (0 to 100 scale) [15]
50: Galium plant response rating (0 to 100 scale) [12]

CO/N=C(\c1csc(C)c1)c1c(O)c(C)nn(C)c1=O [Compound 44]
0: Ryegrass, Italian plant response rating [1] | Barnyardgrass plant response rating [2] | Foxtail, Giant plant response rating [3] | Kochia plant response rating [4] | Kochia plant response rating (0 to 100 scale) [4] | Pigweed plant response rating [5] | Pigweed plant response rating (0 to 100 scale) [5] | Ragweed plant response rating [6] | Ragweed plant response rating (0 to 100 scale) [6] | Ryegrass, Italian plant response rating (0 to 100 scale) [7] | Barnyardgrass plant response rating [8] | Blackgrass plant response rating [9] | Corn plant response rating [10] | Foxtail, Giant plant response rating [11] | Kochia plant response rating (0 to 100 scale) [13] | Kochia plant response rating [13] | Ragweed plant response rating [15] | Wheat plant response rating (0 to 100 scale) [16] | Wheat plant response rating [16] | Plant response rating, Barnyardgrass (0 to 100 scale, 0 is no effect, 100 is complete control) [17] | Plant response rating, Ducksalad (0 to 100 scale, 0 is no effect, 100 is complete control) [18] | Plant response rating, Rice (0 to 100 scale, 0 is no effect, 100 is complete control) [19] | Plant response rating, Sedge, Umbrella (0 to 100 scale, 0 is no effect, 100 is complete control) [20]
40: Ragweed plant response rating (0 to 100 scale) [15]
20: Ryegrass, Italian plant response rating [7] | Corn plant response rating (0 to 100 scale) [10] | Galium plant response rating [12]
50: Ryegrass, Italian plant response rating (0 to 100 scale) [1] | Foxtail, Giant plant response rating (0 to 100 scale) [11] | Galium plant response rating (0 to 100 scale) [12]
10: Barnyardgrass plant response rating (0 to 100 scale) [2] | Foxtail, Giant plant response rating (0 to 100 scale) [3] | Pigweed plant response rating (0 to 100 scale) [14] | Pigweed plant response rating [14]
30: Barnyardgrass plant response rating (0 to 100 scale) [8] | Blackgrass plant response rating (0 to 100 scale) [9]
